Data on one compound can be found in patent US20070093392A1 (priority 2005, published 2007).

This test concerns gerbils. As to conditions: in vivo.

For the compound `COc1cc(CNC(=O)CCCC/C=C/C(C)C)ccc1O` [capsaicin], the “Rodent repellent effect, overall” value is given as “very effective rodent repellent”.
